Reference: US10729694B2 (AI Therapeutics, Inc., priority 2015, dated 2020)

Experiments:
[1] = test system: 456 kinases; type: binding
[2] = test system: representative cancer cell line; assay: Vacuolization and disruption of intracellular trafficking in cells; settings: live cells treated with 500 nM, 24 h

With Cc1cccc(/C=N/Nc2cc(N3CCOCC3)nc(OCCc3ccccn3)n2)c1 [apilimod] the “binding to panel of 456 kinases” value [1] was “did not bind to any of the 456 kinases tested” and the vacuolization [2] was “induces vacuolization”.
